In brackets after ≈: the same amount, converted by molar mass.
Key:
[1] = test system: HaCaT cells; assay: MTT cell viability assay, HaCaT; assay type: cell-based; settings: Homo sapiens, 24 h
Description: (§1) The murine Swiss albino fibroblast (3T3), the immortal human keratinocyte (HaCaT), the squamous cell carcinoma (A431), the human epithelial carcinoma (HeLa) and the human breast adenocarcinoma (MCF-7) cell lines were sourced from Celltec UB (Barcelona, Spain). All cells were maintained and grown in DMEM medium (4.5 g/L glucose) supplemented with 10% (v/v) FBS, 2 mM L-glutamine, 100 U/mL penicillin and 100 μg/mL streptomycin at 37 °C, 5% CO2. Cells were routinely cultured in 75 cm^2 culture flasks and were trypsinized using trypsin-EDTA when the cells reached approximately 80%. Cell concentration in the resulting suspension was assessed using the trypan blue assay, which enables direct discrimination between viable (unstained) and non-viable (blue) cells.
(§2) T3 and HaCaT cells (1 × 10^5 cells/mL), along with A431, HeLa, and MCF-7 cells (5 × 10^4 cells/mL), were cultured at defined seeding densities in the 60 central wells of a 96-well plate. Cells were first incubated for 24 h under standard incubator conditions (5% CO2, 37 °C). After this period, the culture medium was removed, and the cells were incubated for an additional 24 h with their corresponding compound solutions (1 mg/mL) previously diluted in a minimum amount of DMF (dimethylformamide) and then in DMEM medium supplemented with 5% FBS (100 µL) at the required concentration range (20 to 250 µg/mL). Cell viability following exposure to the lactam derivatives was evaluated using two complementary assays: NRU and MTT.
Only living cells can reduce the yellow tetrazolium salt 3-(4,5-dimethyl-2-thiazolyl)-2,5-diphenyltetrazolium bromide (MTT) to insoluble purple formazan crystals. After a 24 h incubation of the cells with their corresponding NPs, the medium was removed and 100 µL of MTT (Sigma-Aldrich, St. Louis, MO, USA) in PBS (5 mg/mL) diluted 1:10 in culture medium without phenol red and without FBS (Lonza, Verviers, Belgium) was added to the cells. After 3 h of incubation, the medium was removed. Thereafter, 100 µL of DMSO (Sigma-Aldrich, St. Louis, MO, USA) was added to each well to dissolve the purple formazan crystals. Agitation and absorbance measurements of the extracted solution were carried out under the same conditions described for the NRU assay. The effect of each treatment was then expressed as the percentage of tetrazolium salt reduction by viable cells relative to untreated controls.
(§3) The half-maximal inhibitory concentration (IC50) values for the different formulations, across cell lines and experimental endpoints, were obtained by fitting the concentration-dependent viability curves. […] These findings reflect the very low cytotoxicity of the compounds toward these cell lines.

[2] = test system: HaCaT cells; assay: NRU cell viability assay, HaCaT; assay type: cell-based; settings: Homo sapiens, 24 h
Description: as §1, §2
The neutral red uptake (NRU) assay is based on the accumulation of dye in the lysosomes of viable cells. After the cells were incubated for 24 h with the corresponding systems, the medium was removed, and the solutions were incubated with the NR dye (Sigma-Aldrich, St. Louis, MO, USA) solution (50 µg/mL) dissolved in the medium, without FBS and without phenol red (Lonza, Verviers, Belgium), for 3 h. Cells were then washed with sterile PBS, followed by the addition of 100 µL of a solution containing 50% absolute ethanol and 1% acetic acid in distilled water to extract the dye. To promote the total dissolution of the dye, plates were placed in a microtiter-plate shaker for 5 min at room temperature. The absorbance of the resulting solutions was measured at 550 nm (Bio-Rad 550 microplate reader, Bio-Rad California, Hercules, CA, USA). Finally, the effect of each treatment was calculated as the percentage of dye uptake by viable cells relative to the control cells (cells without any treatment). […]

[3] = test system: A431 cells; assay: NRU cell viability assay, A431; assay type: cell-based, human; settings: Homo sapiens, A-431, 24 h
Description: as §1, §2
(§4) The neutral red uptake (NRU) assay is based on the accumulation of dye in the lysosomes of viable cells. After the cells were incubated for 24 h with the corresponding systems, the medium was removed, and the solutions were incubated with the NR dye (Sigma-Aldrich, St. Louis, MO, USA) solution (50 µg/mL) dissolved in the medium, without FBS and without phenol red (Lonza, Verviers, Belgium), for 3 h. Cells were then washed with sterile PBS, followed by the addition of 100 µL of a solution containing 50% absolute ethanol and 1% acetic acid in distilled water to extract the dye. To promote the total dissolution of the dye, plates were placed in a microtiter-plate shaker for 5 min at room temperature. The absorbance of the resulting solutions was measured at 550 nm (Bio-Rad 550 microplate reader, Bio-Rad California, Hercules, CA, USA). Finally, the effect of each treatment was calculated as the percentage of dye uptake by viable cells relative to the control cells (cells without any treatment). Finally, the effect of each treatment was calculated as the percentage of dye retained by viable cells compared with untreated control cells.
as §3

[4] = test system: HeLa cells; assay: NRU cell viability assay, HeLa; assay type: cell-based, human; settings: Homo sapiens, 24 h
Description: as §1, §2, §4, §3

[5] = test system: MCF-7 cells; assay: NRU cell viability assay, MCF-7; assay type: cell-based, human; settings: Homo sapiens, MCF7; MCF-7, NRU, 24 h
Description: as §1, §2, §4, §3

[6] = test system: zebrafish embryos; assay: Touch-evoked response (TER) test; assay type: in vivo; settings: 72 hpf, after 2 h washout
Description: Adult zebrafish, both male and female, were procured from a commercial supplier (Pisciber, Barcelona, Spain) and housed in a closed flow-through system with standardized dilution water, as specified in ISO 7346-1 [16] (2 mM CaCl2·2H2O; 0.5 mM MgSO4·7H2O; 0.75 mM NaHCO3; 0.07 mM KCl). The fish were maintained at a temperature of 26 ± 1 °C on a 14 h light and 10 h dark cycle and were daily fed in the morning with Artemia salina, and with commercial flake food in the afternoon (SDS400, Special Diet Services, Dietex, France). The day before eggs were needed, males and females were placed in a breeding tank with plants at a 2:1 male-to-female ratio. The following morning, eggs were collected 30 min after the lights were turned on. […]
At 72 hpf, test solutions were replaced with 0.3× Danieau’s solution without the chemical and incubated at 27 °C ± 1 °C for 2 h. […] In brief, videos were recorded using a Casio Exilim EX-ZR200 video camera (Tokyo, Japan) and the distance swam by zebrafish embryos was measured after three mechanical stimuli, applied to the tail with a forceps tip (Fine Science Tools, Dumont #5, Foster City, CA, USA) at 10 s intervals. […] Six larvae per concentration group were evaluated in at least three independent experiments.
Statistical analysis was performed using GraphPad Prism v.10.0.2. TER test was analyzed using one-way ANOVA and the post-hoc multiple-comparison Dunnett test. […]

SMILES | IC50 [1] [µg/mL] | IC50 [2] [µg/mL] | IC50 [3] [µg/mL] | IC50 [4] [µg/mL] | IC50 [5] [µg/mL] | concentration from which a statistically significant adverse effect was observed in the TER [6] [ng/mL]
C[C@@H]1CN([C@@H](C)c2ccccc2)C(=O)C1(Cl)Cl [Compound 3, (R)-3,3-dichloro-4-methyl-1-((S)-1-phenylethyl)pyrrolidin-2-one] | 122 (≈ 450 µM) | > 250 | 60.2 (≈ 221 µM) | 160 (≈ 588 µM) | 60 (≈ 220 µM) | ≥ 7800
C[C@H](c1ccccc1)N1C[C@H](C)C(Cl)(Cl)C1=O [Compound 4] | 57.3 (≈ 210 µM) | > 250 | 108 (≈ 396 µM) | 77.5 (≈ 285 µM) | > 250 | ≥ 7800

From publication PMC12736018, “Stereoselective Cytotoxicity of Enantiopure 3,3-Dichloro-γ-lactams: Correlating In Vitro Activity with In Vivo Tolerability” (Molecules, 2025)
